From patent publication US8835644B2, “Broad spectrum benzothiophene-nitrothiazolide and other antimicrobials” (University of Virginia Patent Foundation, priority 2009, dated 2014)
In brackets after ≈: the same amount, converted by molar mass. Where two headings read alike, the source gives them in different places.

Experiments:
H. pylori = experiment: MIC testing by broth dilution, H. pylori; assay type: cell-based, Helicobacter pylori
Outline: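 Broth dilution MIC determination against H. pylori: a standard inoculum in 100 microliters of Brain Heart Infusion medium was placed in 96 well microplates. Test compounds began at 32 μg/ml in 200 microliters in well one and were serially diluted over a 32 to 0.06 range. After 24 h, plates were scored by eye and the first well without growth was recorded as the MIC.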

S. epidermidis biofilm = S. epidermidis biofilm assay (activity tables); assay type: cell-based, Staphylococcus epidermidis
Outline: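 Overnight TSB cultures diluted to OD600 0.01 and grown static with compound (triplicate) at 37° C for 16 h; turbidity recorded for growth. Biofilm: washed wells ethanol-fixed, stained with 0.5% crystal violet, A570 read before and after 95% ethanol extraction; mean ± SD.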

C. difficile = experiment: Disk diffusion (Kirby Bower), C. difficile; assay type: cell-based, Clostridium difficile; details: for Disk Diff (%) C. difficile: Nitazoxanide = 100
Outline: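 Twofold broth microdilution from 32 μg/ml down to 0.06, in LB for E. coli, Trypticase Soy for S. epidermidis (planktonic) and Brain Heart Infusion for C. jejuni. C. difficile: anaerobic disk diffusion on Wilkins Chalgrin agar, inhibition zone expressed as a ratio to the NTZ zone.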

S. epidermidis = experiment: Aerobic growth of S. epidermidis in shaken TSB flasks; assay type: cell-based, Staphylococcus epidermidis
Method: Minimal inhibitory concentration testing of NTZ was done in sterile round bottom 96 well microtiter polystyrene plates (Corning Inc., Corning, N.Y.) by microdilution. Tizoxanide TIZ (deacetylated form of NTZ), denitro-NTZ (TIZ without 5-nitro group) and amoxanide AMIX (TIZ-ethylamine) were also tested. Bacteria were grown overnight and suspended in fresh TSB to an OD600 of 0.01 and 100 μl were dispensed into wells with the first well containing 200 μA NTZ and other antibiotics (DMSO control) were added to well one and serially diluted from 32 μg/ml. All compounds were tested in triplicate and plates were read visually or with a plate reader (Molecular Devices) at 8, 12 and at 24 h. MIC was determined as the first well in which no visible bacterial growth was noted relative to controls. Drug effects on aerobic growth were determined in 125 ml flasks containing 25 ml of TSB medium and following inoculation (detailed above), flasks were on a gyrorotary shaker (200 rpm) at 37° C. Final concentrations of NTZ were 0, 10 and 25 μg/ml and samples were removed at hourly intervals and absorbance determined at 600 nm.

[1] = test system: EAEC strains 042 and 17-2; experiment: Growth and MIC of E. coli / EAEC strains in LB and MinA-G medium; assay type: cell-based; details: Escherichia coli; for MIC: static
Method: EAEC strains were grown overnight in MinA-G medium at 37° C. with shaking and used to inoculate fresh MinA-G medium containing a range of NTZ concentrations (0, 5, 10, 15, 20, and 25 μg/ml) to a starting OD600 of 0.1. Growth was recorded as the absorbance at 600 nm at 30-minute intervals over a period of eight hours. […] Motility was assessed in LB soft agar (0.3% agar) containing 0 to 25 μg/ml of NTZ. The diameter of outward spreading was measured daily and inhibition computed as percent of control.

[2] = test system: EAEC 042 (AAF/II fimbriae); experiment: Hemagglutination of sheep erythrocytes, EAEC 042; assay type: cell-based, Escherichia coli; details: EAEC 042 grown in MinA-G with 20 μg/ml NTZ; note: key: +++ = strong hemagglutination reaction; + weak; − no hemagglutination
Method: HA assays were performed in 96-well microplates as described in (1). Bacteria grown over night without shaking ([…]) were suspended in PBS and diluted to OD660 of […] was mixed with an equal volume of 3% (vol/vol) sheep erythrocyte suspension containing 1% mannose, except when type I fimbriae producing strains were assayed. In the latter, bacteria were grown statically in LB medium (with and without NTZ) for 48 h and HA was determined with guinea pig erythrocytes. HA reactions were incubated at 4° C. for […] HA was determined visually against controls receiving no NTZ. All assays were prepared in triplicate and repeated twice.

[3] = test system: EAEC JM221 (Type 1 fimbriae); experiment: Hemagglutination of guinea pig erythrocytes, EAEC JM221; assay type: cell-based, Escherichia coli; details: EAEC JM221 grown statically in LB 48 h with 20 μg/ml NTZ; note: key: +++ = strong hemagglutination reaction; + weak; − no hemagglutination
Method: HA assays were performed in 96-well microplates as described in (1). Bacteria grown over night without shaking (MinA-G medium with and without 25 μg/ml NTZ) were suspended in PBS and diluted to OD660 of […] was mixed with an equal volume of 3% (vol/vol) sheep erythrocyte suspension containing 1% mannose, except when type I fimbriae producing strains were assayed. In the latter, bacteria were grown statically in LB medium (with and without NTZ) for 48 h and HA was determined with guinea pig erythrocytes. HA reactions were incubated at 4° C. for […] HA was determined visually against controls receiving no NTZ. All assays were prepared in triplicate and repeated twice.

[4] = reference (9); cited from earlier work
[5] = 2-amino-3,5-dinitrothiophene analogues table

`CC(=O)Oc1ccccc1C(=O)Nc1ncc([N+](=O)[O-])s1` [Nitazoxanide, 2-(acetyloxy)-N-(5-nitro-2-thiazolyl)benzamide, reference compound] showed an MIC (H. pylori; 2-amino-3,5-dinitrothiophene analogues table, read-out: MIC H. pylori) of 13.0 µM (≈ 3.99 µg/mL), an MIC (H. pylori; Helicobacter pylori, Furan analogues table, read-out: MIC H. pylori) of 13 µM (≈ 3.99 µg/mL) and an MIC (H. pylori; Helicobacter pylori, broth dilution, Brain Heart Infusion, 24 h, read-out: MIC (μM) H. pylori) of 13 µM (≈ 3.99 µg/mL). For the same compound, the MIC (H. pylori; Thiophene analogues table, read-out: MIC H. pylori) was 13.0 µM (≈ 3.99 µg/mL), the “MIC (μM) S. epidermidis Biofilm” value (S. epidermidis biofilm) was 32.5 µM (≈ 9.99 µg/mL) and the “MIC S. epidermidis Biofilm” value (S. epidermidis biofilm; [5]) was 32.5 µM (≈ 9.99 µg/mL). For the same compound, the “MIC S. epidermidis Biofilm” value (S. epidermidis biofilm; Furan analogues table) was 32.5 µM (≈ 9.99 µg/mL), the “MIC S. epidermidis Biofilm” value (S. epidermidis biofilm; Thiophene analogues table) was 32.5 µM (≈ 9.99 µg/mL) and the “Disk Diff (%) C. difficile” value (C. difficile; [5]) was 100%. The “Disk Diff (%) C. difficile” value (C. difficile; Furan analogues table) was 100%, the “Disk Diff (%) C. difficile” value (C. difficile; Thiophene analogues table) was 100% and the “Disk Diffusion (%) C. difficile” value (C. difficile; zone of inhibited growth as relative ratio to the zone for NTZ) was 100%. For the same compound, the “Effect on exponential growth rates” value (S. epidermidis; 10 μg/ml) was “little effect on exponential growth rates”, the “Inhibition of growth in liquid culture under vigorous aeration” value (S. epidermidis; 25 μg/ml) was “significant inhibition” and the IC50 ([1]; 042AND172, read-out: Concentration for 50% inhibition of aerobic growth, EAEC 17-2, MinA-G, estimated) was 20 to 25 µg/mL. The IC50 ([1]; 042AND172, read-out: Concentration for 50% inhibition of aerobic growth, EAEC 042, MinA-G, estimated) was 15 to 20 µg/mL, the MIC ([1]; 042AND172, E. coli strains, rich LB medium, read-out: MIC in LB medium) was > 64 µg/mL and the MIC50 ([1]; 042AND172, EAEC strains, static conditions) was ~20 µg/mL. The MIC ([1]; 042AND172, minimal medium with glucose, read-out: MIC in MinA-G medium) was ~32 µg/mL, the “HA (sheep erythrocytes), bacterial OD660 0.5” value [2] was “−” and the “HA (sheep erythrocytes), bacterial OD660 1.0” value [2] was “−”. For the same compound, the “HA (sheep erythrocytes), bacterial OD660 1.5” value [2] was “+”, the “HA (guinea pig erythrocytes), bacterial OD660 0.5” value [3] was “−” and the “HA (guinea pig erythrocytes), bacterial OD660 1.0” value [3] was “−”. For the same compound, the “HA (guinea pig erythrocytes), bacterial OD660 1.5” value [3] was “+” and the pKa [4] was 6.2.
